Measured values: US7238701B2, “Substituted tetrahydrobenzothienopyrimidinamine compounds useful for treating hyper-proliferative disorders” (Bayer Pharmaceuticals Corporation, priority 2003, dated 2007)

Assays:
[1] = tested on: A431cells (human epidermoid carcinoma); assay: In vitro tumor cell proliferation assay (Cell Titer-Glo luminescent cell viability), A431 cells; assay type: cell-based; conditions: A-431, 72 h, 72 hours drug exposure, 10% Fetal Bovine Serum, ATP luminescence readout, read-out: IC50 (50% inhibition of cell proliferation)
Summary of the method: (§1)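 ATP luminescence (CellTiter-Glo) measured proliferation after 72 h compound exposure at 37 °C, giving IC50 values. Serial dilutions spanning 64 pM–100 μM in 0.1% DMSO were applied one day after plating 2.5×10^3 cells/well in RPMI plus 10% fetal bovine serum.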

[2] = tested on: BT474 (human breast carcinoma); assay: In vitro tumor cell proliferation assay (Cell Titer-Glo luminescent cell viability), BT474 cells; assay type: cell-based; conditions: BT-474, 72 hours drug exposure, 10% Fetal Bovine Serum, ATP luminescence readout, read-out: IC50 (50% inhibition of cell proliferation)
Summary of the method: as §1

For `Fc1cccc(COc2ccc(Nc3ncnc4sc5c(c34)CCC(CCN3CCCCC3)C5)cc2Cl)c1` (stereo not shown) [Example 167, N-{3-chloro-4-[(3-fluorobenzyl)oxy]phenyl}-7-(2-piperidin-1-ylethyl)-5,6,7,8-tetrahydro[1]benzothieno[2,3-d]pyrimidin-4-amine], the IC50 [1] was less than 5 µM and the IC50 [2] was less than 5 µM.
In the case of `COCCN1CCN(CCC2CCc3c(sc4ncnc(Nc5ccc(OCc6cccc(F)c6)c(Cl)c5)c34)C2)CC1` (stereo not shown) [Example 168, N-{3-chloro-4-[(3-fluorobenzyl)oxy]phenyl}-7-{2-[4-(2-methoxyethyl)piperazin-1-yl]ethyl}-5,6,7,8-tetrahydro[1]benzothieno[2,3-d]pyrimidin-4-amine], the IC50 [1] is reported as less than 5 µM and the IC50 [2] is reported as less than 5 µM.
With `CNCCC1CCc2c(sc3ncnc(Nc4ccc(OCc5cccc(F)c5)c(Cl)c4)c23)C1` (stereo not shown) [Example 169, N-{3-chloro-4-[(3-fluorobenzyl)oxy]phenyl}-7-[2-(methylamino)ethyl]-5,6,7,8-tetrahydro[1]benzothieno[2,3-d]pyrimidin-4-amine] the IC50 [1] was less than 5 µM and the IC50 [2] was less than 5 µM.
In the case of `Fc1cccc(COc2ccc(Nc3ncnc4sc5c(c34)CCC(CCn3ccnc3)C5)cc2Cl)c1` (stereo not shown) [Example 170, N-{3-chloro-4-[(3-fluorobenzyl)oxy]phenyl}-7-[2-(1H-imidazol-1-yl)ethyl]-5,6,7,8-tetrahydro[1]benzothieno[2,3-d]pyrimidin-4-amine], the IC50 [1] is reported as less than 5 µM and the IC50 [2] is reported as less than 5 µM.
In the case of `Fc1cccc(COc2ccc(Nc3ncnc4sc5c(c34)CCC(CCN3CCN(Cc4ccncc4)CC3)C5)cc2Cl)c1` (stereo not shown) [Example 171, N-{3-chloro-4-[(3-fluorobenzyl)oxy]phenyl}-7-{2-[4-(pyridin-4-ylmethyl)piperazin-1-yl]ethyl}-5,6,7,8-tetrahydro[1]benzothieno[2,3-d]pyrimidin-4-amine], the IC50 [1] is reported as less than 5 µM and the IC50 [2] is reported as less than 5 µM.
`N#Cc1ccc(N2CCN(CCC3CCc4c(sc5ncnc(Nc6ccc(OCc7cccc(F)c7)c(Cl)c6)c45)C3)CC2)cc1` (stereo not shown) [Example 172, 4-(4-{2-[4-({3-chloro-4-[(3-fluorobenzyl)oxy]phenyl}amino)-5,6,7,8-tetrahydro[1]benzothieno[2,3-d]pyrimidin-7-yl]ethyl}piperazin-1-yl)benzonitrile] was tested, and the IC50 [1] was less than 50 µM and the IC50 [2] was less than 5 µM.
`CCOC(=O)CC1CCc2c(sc3ncnc(Nc4ccc(OCc5ccccn5)c(Cl)c4)c23)C1` (stereo not shown) [Example 173, {4-[3-Chloro-4-(pyridin-2-ylmethoxy)-phenylamino]-5,6,7,8-tetrahydro-benzo[4,5]thieno[2,3-d]pyrimidin-7-yl}-acetic acid ethyl ester] was tested, and the IC50 [1] was less than 50 µM and the IC50 [2] was less than 5 µM.
`OCCC1CCc2c(sc3ncnc(Nc4ccc(OCc5ccccn5)c(Cl)c4)c23)C1` (stereo not shown) [Example 174, 2-{4-[3-Chloro-4-(pyridin-2-ylmethoxy)-phenylamino]-5,6,7,8-tetrahydro-benzo[4,5]thieno[2,3-d]pyrimidin-7-yl}-ethanol] showed an IC50 [1] of less than 50 µM and an IC50 [2] of less than 5 µM.
Molecule `CS(=O)(=O)OCCC1CCc2c(sc3ncnc(Nc4ccc(OCc5ccccn5)c(Cl)c4)c23)C1` (stereo not shown) [Example 175, Methanesulfonic acid 2-{4-[3-chloro-4-(pyridin-2-ylmethoxy)-phenylamino]-5,6,7,8-tetrahydro-benzo[4,5]thieno[2,3-d]pyrimidin-7-yl}-ethyl ester] has an IC50 [1] of less than 5 µM and an IC50 [2] of less than 5 µM.
With `COCCNCCC1CCc2c(sc3ncnc(Nc4ccc(OCc5ccccn5)c(Cl)c4)c23)C1` (stereo not shown) [Example 176, N-[3-chloro-4-(pyridin-2-ylmethoxy)phenyl]-7-{2-[(2-methoxyethyl)amino]ethyl}-5,6,7,8-tetrahydro[1]benzothieno[2,3-d]pyrimidin-4-amine] the IC50 [1] was less than 5 µM and the IC50 [2] was less than 5 µM.
Molecule `Clc1cc(Nc2ncnc3sc4c(c23)CCC(CCN2CCOCC2)C4)ccc1OCc1ccccn1` (stereo not shown) [Example 177, [3-Chloro-4-(pyridin-2-ylmethoxy)-phenyl]-[7-(2-morpholin-4-yl-ethyl)-5,6,7,8-tetrahydro-benzo[4,5]thieno[2,3-d]pyrimidin-4-yl]-amine] has an IC50 [1] of less than 5 µM and an IC50 [2] of less than 5 µM.
